Target: T1, Polyunsaturated fatty acid lipoxygenase ALOX12/ALOX15 (Homo sapiens, UniProt P16050+P18054)
T1 sequence (P16050 whole entry): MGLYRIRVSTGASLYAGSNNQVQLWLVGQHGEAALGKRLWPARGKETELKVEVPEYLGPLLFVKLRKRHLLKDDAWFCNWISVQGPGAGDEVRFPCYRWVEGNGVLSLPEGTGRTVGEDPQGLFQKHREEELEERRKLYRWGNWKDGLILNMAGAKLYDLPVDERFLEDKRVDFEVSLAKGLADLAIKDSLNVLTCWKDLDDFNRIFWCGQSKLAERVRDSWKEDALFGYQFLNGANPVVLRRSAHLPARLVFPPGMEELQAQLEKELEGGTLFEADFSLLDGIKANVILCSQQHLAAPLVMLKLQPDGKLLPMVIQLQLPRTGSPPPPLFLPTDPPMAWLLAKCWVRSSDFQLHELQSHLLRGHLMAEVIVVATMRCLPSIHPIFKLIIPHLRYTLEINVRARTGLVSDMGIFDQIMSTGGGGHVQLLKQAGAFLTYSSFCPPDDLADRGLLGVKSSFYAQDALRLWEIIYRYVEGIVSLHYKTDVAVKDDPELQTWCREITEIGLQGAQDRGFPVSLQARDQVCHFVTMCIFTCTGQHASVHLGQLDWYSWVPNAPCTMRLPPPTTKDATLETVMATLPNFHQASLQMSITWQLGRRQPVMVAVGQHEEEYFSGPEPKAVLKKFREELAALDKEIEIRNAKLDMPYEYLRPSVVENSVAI
T1 sequence (P18054 whole entry): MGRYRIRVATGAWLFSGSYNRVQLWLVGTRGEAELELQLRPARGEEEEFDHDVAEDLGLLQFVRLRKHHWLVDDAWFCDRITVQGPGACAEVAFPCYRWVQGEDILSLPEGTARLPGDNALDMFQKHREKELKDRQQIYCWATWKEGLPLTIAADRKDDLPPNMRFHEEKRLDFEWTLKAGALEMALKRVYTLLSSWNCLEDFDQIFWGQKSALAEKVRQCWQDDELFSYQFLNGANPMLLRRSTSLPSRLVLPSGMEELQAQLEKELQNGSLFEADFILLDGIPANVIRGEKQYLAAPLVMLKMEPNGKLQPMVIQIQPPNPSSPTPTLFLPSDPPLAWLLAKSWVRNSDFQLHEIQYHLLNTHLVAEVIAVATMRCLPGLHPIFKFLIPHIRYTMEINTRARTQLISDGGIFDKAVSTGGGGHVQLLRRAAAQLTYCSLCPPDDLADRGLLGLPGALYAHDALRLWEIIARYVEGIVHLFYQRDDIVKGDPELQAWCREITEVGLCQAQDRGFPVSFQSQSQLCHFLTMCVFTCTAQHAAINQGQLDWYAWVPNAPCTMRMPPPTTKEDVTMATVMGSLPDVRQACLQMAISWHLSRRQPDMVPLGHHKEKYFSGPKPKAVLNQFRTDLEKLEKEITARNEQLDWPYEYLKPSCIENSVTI
Assay: Biological Activity of Exemplified Compounds as Inhibitors of 12/15-LOX

IC50	SMILES
97 nM	CNc1oc(-c2cc(Cl)cc(Cl)c2OC(F)F)nc1C#N [US20240336642, Compound 4]
380 nM	CNc1oc(-c2cc(Cl)cc(OC)c2Cl)nc1C#N [US20240336642, Compound 9]
> 20000 nM	N#Cc1nc(-c2cc(Cl)cc(Cl)c2F)oc1NCCCCCO [US20240336642, Compound 25]
